Source: patent US20100323990A1, “SHIP 1 MODULATOR PRODRUGS” (THE UNIVERSITY OF BRITISH COLUMBIA, priority 2006, published 2010)

Columns and labels:
[1] = tested on: SHIP+/+ bone marrow derived macrophages; test: LPS-stimulated TNFα production in SHIP+/+ bone marrow derived macrophages; format: cell-based, mice; details: for suppression of TNFα production: SHIP+/+ cells, 10 ng/mL LPS 2 h
Method: Bone marrow cells were aspirated from 4 to 8 week old C57B16×129Sv mixed background mice and SHIP^+/+ and SHIP^−/− mast cells prepared as described previously. Bone marrow derived macrophages from SHIP^+/+ and SHIP^−/− mice were obtained and maintained in IMDM supplemented with 10% FCS, 150 μM MTG, 2% C127 cell conditioned medium as a source of macrophage colony stimulating factor (M-CSF) (macrophage medium)
LPS stimulation of macrophages. For the analysis of LPS-stimulated TNFα production, 2×10^5 cells were plated the night before in 24 well plates in macrophage medium. The next day, the medium was changed and AQX-016A or carrier was added to cells at the indicated concentrations for 30 min prior to the addition of 10 ng/mL LPS. Supernatants were collected for TNFα determination by ELISA (BD Biosciences, Mississauga, ON, Canada). For analysis of intracellular signaling, 2×10^6 cells were plated the night before in 6 cm tissue culture plates. The next day, the cells were cultured in macrophage medium without M-CSF for 1 hr at 37° C. and then pretreated with AQX-016A or carrier for 30 min prior to the addition of 10 ng/mL LPS for 15 min. Cells were washed with 4° C. PBS and resuspended in lysis buffer (50 mM Hepes, 2 mM EDTA, 1 mM NaVO4, 100 mM NaF, 50 mM NaPPi and 1% NP40) supplemented with Complete Protease Inhibitor Cocktail (Roche, Montreal, Canada). Lysates were rocked at 4° C. for 30 min and clarified by centrifuging 20 min at 12000×g. Lysates were then made 1× in Laemmli's buffer, boiled 2 min and loaded onto 7.5% SDS polyacrylamide […]. Immunoblot analysis for phospho PKB (Cell Signalling, Mississauga, Ont), SHIP and actin (Santa Cruz, Santa Cruz, Calif.) were carried out as described previously. Stimulation of mast cells by FcεRI crosslinking. Mast cells were pre-loaded overnight in BMMC medium lacking IL-3 with 0.1 μg/ml anti-DNP IgE (SPE-7, Sigma, Oakville, Ont). For calcium flux measurements, cells were incubated with 2 μM fura 2-acetoxymethyl ester (Molecular Probes, Eugene, Oreg.) in Tyrode's buffer at 23° C. for 45 min. Cells were then washed and incubated in the presence of vehicle control, LY294002 or AQX-016A 30 min prior to stimulation with the indicated concentration of DNP-human serum albumin (DNP-HSA). Calcium influx was monitored by spectrofluorometry. For analysis of intracellular signaling, cells were pre-loaded with anti-DNP IgE as above, pre-treated with AQX-016A or buffer control for 30 min at 37° C. and stimulated with 20 ng/ml DNP-HSA for 5 min. Total cell lysates were then prepared and analyzed for phospho-PKB, phospho-p38^MAPK, phospho-MAPK, Grb-2 (Cell Signalling, Mississauga, Ont) and SHIP^6 by immunoblot analysis.
The target specificity and biological efficacy of AQX-016A were assessed by comparing AQX-016A's effects on PI3K-regulated processes in primary SHIP^+/+ vs SHIP^−/− macrophages and mast cells. […] LPS stimulation of macrophages is associated with a PIP3-dependent release of pro-inflammatory mediators such as TNFα. The action of AQX-016A on SHIP^+/+ vs SHIP^−/− bone marrow derived macrophages was examined. Cells were pretreated for 30 min with AQX-016A prior to stimulation with 10 ng/mL of LPS for 2 h. AQX-016A was able to suppress TNFα production in SHIP^+/+ cells by 30% at 3 μM and 50% at 15 μM (FIG. 8A). […] Activation of mast cells via IgE+ antigen crosslinking of their IgE receptors results in elevation of intracellular calcium levels.

[2] = tested on: luciferase expressing OPM2 cells; test: In vivo Multiple Myeloma (MM) assay (Assay 8), OPM2 xenograft; design: species or system mice; details: 50 mg/kg every 3 days, subcutaneous oil depot
Method: Assay 8) In vivo Multiple Myeloma (MM) assay. Mice were inoculated with at two sites each with 3×10^6 luciferase expressing OPM2 cells suspended in 50 μL of growth medium and 50 μL of Matrigel basement membrane matrix (Becton Dickenson; Bedford, Mass.). Tumors were injected subcutaneously in the upper and lower flanks of the mice and allowed to establish for 2 weeks. After 2 weeks, a test compound or control vehicle was administered in a subcutaneous oil depot at a dose of 50 mg/kg every 3 days.
Tumors were measured using bioluminescence imaging on the Xenogen IVIS 200. Mice received intra-peritoneal injections of 200 μL of D-luciferin at 3.75 mg/mL in sterile PBS. Mice were then anesthetized with isofluorane and imaged 15 minutes post-injection of luciferin. Quantification of tumor size was performed using the Living Image™ software.
MM Xenograft murine model. Mice were inoculated with at two sites each with 3×10^6 luciferase expresseing OPM2 cells suspended in 50 μL of growth medium and 50 μL of Matrigel basement membrane matrix (Becton Dickenson; Bedford, Mass.). Tumors were injected subcutaneously in the upper and lower flanks of the mice and allowed to establish for 2 weeks. […]
Tumors were measured using bioluminescence imaging on the Xenogen IVIS 200. […] Quantification of tumor size was performed using the Living Image™ software. […]

Row | Compound | suppression of TNFα production ([1]; 3 μM) | suppression of TNFα production ([1]; 15 μM) | Assay 8: In vivo Multiple Myeloma (MM) assay, desired activity [2] | TNFα production, SHIP+/+ vs SHIP−/− macrophages ([1]; LPS stimulated) | EC50 ([1]; Mus musculus, Macrophage, SHIP+/+ macrophages, LPS stimulated, read-out: EC50 for inhibition of TNFα production)
1 | Cc1cc(O)c(O)c2c1[C@]1(C)CCC3C(C)(C)CCC[C@]3(C)[C@H]1C2 (stereo partly drawn) [AQX-016A] | 30% | 50% | + |  | 
2 | Cc1cc(O)cc2c1[C@]1(C)CCC3C(C)(C)CCC[C@]3(C)[C@H]1C2 (stereo partly drawn) [Compound 100] |  |  | + | selectively inhibited | 0.3 to 0.6 µM
